Source: patent US20240016924A1, “NEW ADJUVANT TO IMPROVE THE INNATE IMMUNITY” (INSTITUT NATIONAL DE LA SANTÉ ET DE LA RECHERCHE MÉDICALE, priority 2020, published 2024)

Tests used:
nasal RPMI cells = assay: Quantitative RT-PCR for short and long form TSLP, nasal RPMI cells; format: cell-based, human
Experimental: (§1) The expression of short and long form TSLP was quantified as described (Bjerkan, Schreurs et al. 2015, Dong, Hu et al. 2016). Briefly, total RNA was extracted using Trizol. Five hundred nanograms of RNA were treated with ezDNase Enzyme (Thermo Fisher) to remove genomic DNA, and reverse transcribed into cDNA using the kit SuperScript IV VILO Master Mix according to manufacturer instructions (Thermo Fisher). Quantitative PCR was performed using reported primers (Dong, Hu et al. 2016) and the PowerUp SYBR Green Master Mix according to manufacturer instructions (Thermo Fisher). Reactions were performed in triplicates, with glyceraldehyde-3-phosphate dehydrogenase (GAPDH) as the internal control. Amplification, data acquisition, and analysis were carried out using the LightCycler 480 Software (Roche, Mannheim, Germany). The levels of TSLP mRNA were normalized to the levels of GAPDH using the ΔCt method (Schmittgen and Livak 2008) and were presented as 2-ΔCt values.

Monocyte-derived DCs = assay: DC-EC co-culture and DC activation; format: cell-based, human
Experimental: Monocyte-derived DCs (DCs) were generated from primary human monocytes obtained from PBMCs (purity>98%) as described (Sallusto and Lanzavecchia 1994, Magérus-Chatinet, Yu et al. 2007). In brief, human peripheral blood mononuclear cells (PBMC) were separated from healthy donors blood (EFS, Paris, France), and monocytes were purified from PBMC by negative selection according to manufacturer instructions (StemCell Technologies, France). DCs were obtained by incubating monocytes for 7 days in complete medium containing GM-CSF (100 ng/ml) and IL-4 ([…]).
Three DC culture systems were developed. Monocytes derived DCs (5×10^5 cells) were incubate for 24 h in medium alone and considered as non-mucosal DCs (DCs) or co-cultured with nasal epithelial cell (RPMI-2650 cell line) monolayer in 24-well plate (DC-EC or eduDC systems for 24 hours at 37° C. In turn, DCs were either further cultured with ECs during P1 stimulation (DC-ECs) or separated from EC and transferred into a new plate (eduDCs) for further P1 treatment. Subsequently, P1 (clade B, 125 μM) or medium were added to each of the DCs, DC-ECs or eduDCs cultures for 16 hrs. DCs were collected for surface staining with allophycocyanin (APC)-conjugated anti-CD86, R-phycoerythrin (PE)-conjugated anti-CD83, APC-conjugated anti-TSLPR, PE-conjugated anti-IL-7Rα antibodies (all from Bio-Techne). Specific labeling was quantified by flow cytometry using a Guava EasyCyte flow cytometer and the InCyte software (Merck) described (Duchemin, Khamassi et al. 2018). Culture supernatant were collected and frozen at −80° C. for subsequent cytokine and chemokine analyses.
In particular, mucosal DCs modulate their functions by interacting with epithelial cells (ECs) including via epithelial secretion of TSLP (Rimoldi, Chieppa et al. 2005, Biton, Levin et al. 2011). Thus, we established a simplified mucosal DC model, by co-culturing DCs and nasal ECs (RPMI-2650 cell line), thereby mimicking the nasal mucosal environment. DCs were first ‘educated’ by a 24 hr co-culture with ECs. Subsequently, these ‘educated’ DCs were either maintained in culture with ECs and referred to as DC-EC, or separated from the epithelium and referred to as eduDC. Alternatively, DCs only cultured with medium represented ‘non-mucosal’ DCs.

primary HNECs = assay: Quantitative RT-PCR for short and long form TSLP, primary HNECs; format: cell-based, human
Experimental: as §1

[1] = test system: primary human nasal epithelial cells (HNECs); assay: TSLP secretion in primary human nasal epithelial cells; format: cell-based; details: GalCer-dependent
Experimental: Primary human nasal epithelial cells (HNECs, purchased from PromoCell, Heidelberg, Germany) were isolated from nasal septum or adenoids of healthy donors. Cells from two independent donors were obtained. HNECs were cultured in airway epithelial cell basal medium (PromoCell) and supplemented with airway epithelial cell growth SupplementMix (PromoCell) and only cells from passage 2 to 6 were used.
(§2) TSLP, IL-25/IL-17E, IL-33, IFN-γ, IL-10, IL-12/23p40, IL-4, IL-5, IL-6, IL-13, TNF-α, MMP-9, IL-8/CXCL8, […], MDC/CCL22, TARC/CCL17, APRIL and BAFF were measured in culture supernatants from indicated experiments with custom multiplex Luminex assays (Bio-techne) according to the manufacturer's instructions. Additionally, when indicated TSLP was measured in culture supernatants by enzyme-linked immunosorbent assay (ELISA) with a limit of detection of 8 pg/ml (Thermo Fisher) according to the manufacturer's instructions.

RPMI 2650 cells = assay: TSLP secretion in nasal RPMI 2650 cell culture supernatants (ELISA); format: cell-based, human
Experimental: Nasal RPMI 2650 cells (isolated from the human nasal septum, squamous cell carcinoma, ATCC) were grown in MEMα (Minimum Essential Medium α, Thermo Fisher) supplemented with 10% fetal calf serum (FCS, Eurobio, Courtaboeuf, France) and 1% penicillin/streptomycin.
as §2
We first investigate whether P1 induced TSLP secretion in nasal epithelium. Therefore, we cultured human nasal epithelial cells (RPMI 2650) with P1 Glade B for 2-24 hours at 37° C. and analyzed the culture supernatants for TSLP secretion.

primary HNEC cells = assay: Calcium measurement (Fura-2/AM), primary HNEC cells; format: cell-based, human; details: P1 125 μM vs 2511M, controls at 125 μM, n=3
Experimental: 70-80% confluent RPMI 2650 or HNEC cells in 24-well plate were loaded with […] Fura-2/AM (Molecular Probes) in basal medium without serum/growth factors for 1 hour at 37° C. Cells were washed twice with mammalian saline (Conche, Boulla et al. 2009) and measurements were performed in complete medium supplied with HEPS (10 mM) and CaCl2 (2 mM) as described add (Conche, Boulla et al. 2009). Images were acquired with an inverted fluorescence microscope (Observer Z1, Zeiss, Germany) and analyzed with MetaMorph software (Guichard, Bonilla et al. 2017) Calcium was measured every 5 seconds by video fluorescence imaging. Results were expressed as 340 nm to 380 nm fluorescence ratio and normalized to the baseline, i.e. ratio at time zero was set as 1.

For “SQNQQEKNEQELLELDKWASLWNWFNITNWLWYIK [P1]”, the “increase of lfTSLP transcription compared to unstimulated cells” value (nasal RPMI cells; p=0.02, n=5) was 1.9 fold, the “level of the sfTSLP transcript” value (nasal RPMI cells; upon P1 stimulation) was “remains unchanged” and the “expression of maturation markers CD83 and CD86” value (Monocyte-derived DCs; 'non-mucosal' DCs, P1 125 μM overnight) was “has no effect”. For the same sequence, the IFN-γ secretion (Monocyte-derived DCs; DC models upon P1 stimulation) was “remains unchanged upon P1-stimulation or slightly decreases in DC-EC”, the “expression of TSLP receptor (TSLP-R and IL-7Rα)” value (Monocyte-derived DCs; DCs in all three models) was “significantly enhanced the expression of TSLP receptor” and the “IL-12, IL-13, CCL2, CCL17, TNF-α, APRIL and BAFF secretion” value (Monocyte-derived DCs; DCs, DC-EC, eduDC) was “secreted equally in all three models”. The TSLP secretion (Monocyte-derived DCs; eduDC and DC-EC models) was “more modest”, the “IL-6, IL-8, IL-10, CCL20, CCL22 and MMP-9 secretion” value (Monocyte-derived DCs; eduDC and DC-EC models compared with non-mucosal DCs) was “significant increase” and the “expression of co-stimulatory molecules CD83 and CD86” value (Monocyte-derived DCs; mucosal DCs (DC-EC or eduDCs), P1 125 μM overnight, versus untreated) was “significant up-regulation”. For the same sequence, the “IL-25, IL-33, IL-4, IL-5 secretion” value (Monocyte-derived DCs; whatever the model) was “remain undetectable”, the “increase of lfTSLP transcription compared to unstimulated cells” value (primary HNECs; HNECs, p=0.004, n=6) was 5.9 fold and the “level of the sfTSLP transcript” value (primary HNECs; upon P1 stimulation, primary HNECs) was “remains unchanged”. For the same sequence, the TSLP secretion [1] was “induces primary human nasal epithelial cells (HNECs) to secrete TSLP”, the “TSLP secretion time course” value (RPMI 2650 cells; 2-24 hours at 37° C.) was “reaching a plateau from 4 to 24 h” and the TSLP secretion (RPMI 2650 cells; P1 5, 25, 125 μM, 2 h to 4 h, compared with medium and scramble peptides) was “upregulates TSLP secretion in a dose-dependent manner”. For the same sequence, the “TSLP secretion, trimeric versus monomeric state” value (RPMI 2650 cells; P1 at 125 μM versus 5 μM and 25 μM) was “significantly higher secretion of TSLP”, the “Secretion of TSLP” value (RPMI 2650 cells; peptide at 125 uM, 4 hours, n=5) was 52.3 ± 3.4 pg/mL and the “extracellular calcium influx (340/380 nm ratio)” value (primary HNEC cells) was “induces an immediate extracellular calcium influx in a concentration-dependent manner”.
